Assay results taken from patent US20060062866A1, “Starch-pomegranate juice complex as an HIV entry inhibitor and topical microbicide” (NEW YORK BLOOD CENTER, INC., priority 2004, published 2006).

biological target: T1, gp120-CD4 binding (Human immunodeficiency virus type 1 group M subtype B, UniProt P03375); parameters: species or system HIV-1; details: purified commercial compounds at 200 μg/ml
T1 construct: coated with 100 ng/well of either gp120 IIIB or gp120 BaL
Procedure: CD4-HIV-1 gp120 binding and its inhibition were measured by ELISA. Wells of 96-well polystyrene plates (Immulon II, Dynatech Laboratories, Inc., Chantilly, Va.) were coated with 100 ng/well of either gp120 IIIB or gp120 BaL, and post-coated as described [Neurath, A. R., Strick, N., Li, Y. Y., Debnath, A. K.: Cellulose acetate phthalate, a common pharmaceutical excipient, inactivates HIV-1 and blocks the coreceptor binding site on the virus envelope glycoprotein gp120, BMC Infect. Dis., (2001), 1:17]. […] The wells were washed 5× with TS. Biotinyl-CD4 (1 μg/ml) in TS-1% gelatin was added to the wells for 5 hours at 37° C. After washing 1× with TS-0.1% Tween 20 and 5× with TS, horseradish peroxidase (HRP)-streptavidin (0.625 μg/ml; Amersham, Arlington Heights, Ill.) in TS-2% gelatin-0.05% Tween 20 was added. After 30 minutes at 37° C., the wells were washed 4 x with TS-0.1% Tween 20 and 2× with TS. Bound HRP-was detected using a kit from Kirkegaard and Perry Laboratories Inc. (Gaithersburg, Md.) and the absorbance (A) read at 450 nm. […] In an alternative assay, CD4 (500 ng/ml) was mixed with biotinyl-gp120 (1 μg/ml) in the presence or absence of inhibitors for 30 minutes at 20° C. Serial dilutions of the mixtures were added to wells coated with the anti-CD4 mAb OKT 4 (Ortho-Clinical Diagnostics, Rochester, N.Y.) and captured biotinyl-gp120 was detected with HRP-streptavidin as described above. To measure binding to gp120 of antibodies to gp120 peptides, the respective rabbit antisera were diluted 50-fold in a mixture of FBS and goat serum (9:1) containing 0.1% Tween 20 (pH 8.0) and added to gp120 wells. Bound IgG was detected with HRP labeled anti-rabbit IgG (Sigma, St. Louis, Mo.; 1 μg/ml in TS-10% goat serum-0.1% Tween 20). […] Briefly, FLSC (125 ng/ml) in the absence or presence of graded amounts of inhibitors was added to Cf2Th/synCCR5 cells fixed with 5% formaldehyde in wells of 96-well plates.

| Compound | blocking of gp120-CD4 binding (ELISA) |
| --- | --- |
| O=C(O)/C=C/c1ccc(O)c(O)c1 [caffeic acid] | did not block |
| O=c1c(O)c(-c2ccc(O)c(O)c2)oc2cc(O)cc(O)c12 [quercetin] | did not block |
| C[C@H]1[C@H](C)CC[C@]2(C(=O)O)CC[C@]3(C)C(=CC[C@@H]4[C@@]5(C)CC[C@H](O)C(C)(C)[C@@H]5CC[C@]43C)[C@H]12 [ursolic acid] | did not block |
| catechin | did not block |
